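Method: 48-hour compound exposure of cells in 96-well plates, five concentrations, linear interpolation of endpoints. Abbreviation: GI50, concentration required for 50% inhibition of growth.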 Activity calls are given as the source filed them. No stated cut-off is given here; in the data, active = GI50 up to about 1.1 µM and inactive = higher.
How the values were obtained:
Experiment in all cases: growth of human tumour cells (NCI), 48 h
TK-10 = test system: TK-10
786-0 = test system: 786-0
SK-OV-3 = test system: SK-OV-3
RXF 393 = test system: RXF 393
LOX IMVI = test system: LOX IMVI
NCI-H522 = test system: NCI-H522
A549 = test system: A549
MDA-MB-435 = test system: MDA-MB-435
RPMI-8226 = test system: RPMI-8226
SF-539 = test system: SF-539
K562 = test system: K562
SR = test system: SR
HCC 2998 = test system: HCC 2998
PC-3 = test system: PC-3
BT-549 = test system: BT-549
HOP-62 = test system: HOP-62
NCI-H23 = test system: NCI-H23
OVCAR-4 = test system: OVCAR-4
SNB-75 = test system: SNB-75
SK-MEL-2 = test system: SK-MEL-2
SNB-19 = test system: SNB-19
SF-268 = test system: SF-268
DU-145 = test system: DU-145
MCF7 = test system: MCF7
KM12 = test system: KM12
UO-31 = test system: UO-31
HCT-116 = test system: HCT-116
HCT-15 = test system: HCT-15
NCI/ADR-RES = test system: NCI/ADR-RES
COLO 205 = test system: COLO 205
SN12C = test system: SN12C
MOLT-4 = test system: MOLT-4
HL-60 = test system: HL-60
UACC-62 = test system: UACC-62
CAKI-1 = test system: CAKI-1
MDA-N = test system: MDA-N
HT-29 = test system: HT-29
OVCAR-5 = test system: OVCAR-5
EKVX = test system: EKVX
IGROV-1 = test system: IGROV-1
SF-295 = test system: SF-295
T47D = test system: T47D
SK-MEL-28 = test system: SK-MEL-28
OVCAR-8 = test system: OVCAR-8
HOP-92 = test system: HOP-92
SW-620 = test system: SW-620
NCI-H226 = test system: NCI-H226
OVCAR-3 = test system: OVCAR-3
Hs-578T = test system: Hs-578T
A498 = test system: A498
ACHN = test system: ACHN
SK-MEL-5 = test system: SK-MEL-5
M14 = test system: M14
NCI-H460 = test system: NCI-H460
U-251 = test system: U-251
UACC-257 = test system: UACC-257
Malme-3M = test system: Malme-3M
MDA-MB-231 = test system: MDA-MB-231
CCRF-CEM = test system: CCRF-CEM
SNB-78 = test system: SNB-78
HOP-18 = test system: HOP-18
DMS-114 = test system: DMS-114
M19-MEL = test system: M19-MEL
DMS-273 = test system: DMS-273
KM-20L2 = test system: KM-20L2

Nc1nc(Cl)cc(NCCC2(CO)CCC2)n1
GI50 (TK-10): > 100 µM (inactive)
GI50 (786-0): > 100 µM (inactive)
GI50 (SK-OV-3): > 100 µM (inactive)
GI50 (RXF 393): > 100 µM (inactive)
GI50 (LOX IMVI): > 100 µM (inactive)
GI50 (NCI-H522): > 100 µM (inactive)
GI50 (A549): > 100 µM (inactive)
GI50 (MDA-MB-435): > 100 µM (inactive)
GI50 (RPMI-8226): > 100 µM (inactive)
GI50 (SF-539): > 100 µM (inactive)
GI50 (K562): > 100 µM (inactive)
GI50 (SR): > 100 µM (inactive)
GI50 (HCC 2998): > 100 µM (inactive)
GI50 (PC-3): > 100 µM (inactive)
GI50 (BT-549): > 100 µM (inactive)
GI50 (HOP-62): > 100 µM (inactive)
GI50 (NCI-H23): > 100 µM (inactive)
GI50 (OVCAR-4): > 100 µM (inactive)
GI50 (SNB-75): > 100 µM (inactive)
GI50 (SK-MEL-2): > 100 µM (inactive)
GI50 (SNB-19): > 100 µM (inactive)
GI50 (SF-268): > 100 µM (inactive)
GI50 (DU-145): > 100 µM (inactive)
GI50 (MCF7): > 100 µM (inactive)
GI50 (KM12): > 100 µM (inactive)
GI50 (UO-31): > 100 µM (inactive)
GI50 (HCT-116): > 100 µM (inactive)
GI50 (HCT-15): > 100 µM
GI50 (NCI/ADR-RES): > 100 µM (inactive)
GI50 (COLO 205): > 100 µM (inactive)
GI50 (SN12C): > 100 µM (inactive)
GI50 (MOLT-4): > 100 µM (inactive)
GI50 (HL-60): > 100 µM (inactive)
GI50 (UACC-62): > 100 µM (inactive)
GI50 (CAKI-1): > 100 µM (inactive)
GI50 (MDA-N): > 100 µM (inactive)
GI50 (HT-29): > 100 µM (inactive)
GI50 (OVCAR-5): > 100 µM (inactive)
GI50 (EKVX): 4.73 µM (inactive)
GI50 (IGROV-1): > 100 µM (inactive)
GI50 (SF-295): > 100 µM (inactive)
GI50 (T47D): > 100 µM (inactive)
GI50 (SK-MEL-28): > 100 µM (inactive)
GI50 (OVCAR-8): > 100 µM (inactive)
GI50 (HOP-92): 93.3 µM (inactive)
GI50 (SW-620): > 100 µM (inactive)
GI50 (NCI-H226): > 100 µM (inactive)
GI50 (OVCAR-3): > 100 µM (inactive)
GI50 (Hs-578T): 45.4 µM (inactive)
GI50 (A498): > 100 µM (inactive)
GI50 (ACHN): > 100 µM (inactive)
GI50 (SK-MEL-5): > 100 µM (inactive)
GI50 (M14): > 100 µM (inactive)
GI50 (NCI-H460): > 100 µM (inactive)
GI50 (U-251): > 100 µM (inactive)
GI50 (UACC-257): > 100 µM (inactive)
GI50 (Malme-3M): > 100 µM (inactive)
GI50 (MDA-MB-231): > 100 µM (inactive)
GI50 (CCRF-CEM): > 100 µM (inactive)

C/N=C(\S)N/N=C/C(C)=N/N/C(S)=N/C
GI50 (TK-10): > 100 µM (inactive)
GI50 (786-0): > 100 µM (inactive)
GI50 (SNB-78): > 100 µM (inactive)
GI50 (HOP-18): > 100 µM (inactive)
GI50 (SK-OV-3): > 100 µM (inactive)
GI50 (RXF 393): > 100 µM (inactive)
GI50 (LOX IMVI): > 100 µM (inactive)
GI50 (DMS-114): 0.0414 µM (active)
GI50 (NCI-H522): > 100 µM (inactive)
GI50 (A549): > 100 µM (inactive)
GI50 (RPMI-8226): 0.583 µM (active)
GI50 (SF-539): > 100 µM (inactive)
GI50 (HCC 2998): > 100 µM (inactive)
GI50 (HOP-62): > 100 µM (inactive)
GI50 (NCI-H23): > 100 µM (inactive)
GI50 (SK-MEL-2): > 100 µM (inactive)
GI50 (SNB-19): > 100 µM (inactive)
GI50 (SF-268): > 100 µM (inactive)
GI50 (KM12): > 100 µM (inactive)
GI50 (M19-MEL): > 100 µM (inactive)
GI50 (UO-31): > 100 µM (inactive)
GI50 (HCT-116): 0.0489 µM (active)
GI50 (HCT-15): > 100 µM
GI50 (COLO 205): > 100 µM (inactive)
GI50 (SN12C): > 100 µM (inactive)
GI50 (MOLT-4): 0.323 µM (active)
GI50 (UACC-62): > 100 µM (inactive)
GI50 (OVCAR-5): 0.843 µM (active)
GI50 (DMS-273): > 100 µM (inactive)
GI50 (EKVX): > 100 µM (inactive)
GI50 (KM-20L2): 0.631 µM (active)
GI50 (SF-295): > 100 µM (inactive)
GI50 (SK-MEL-28): > 100 µM (inactive)
GI50 (SW-620): > 100 µM (inactive)
GI50 (OVCAR-3): > 100 µM (inactive)
GI50 (A498): 48.2 µM (inactive)
GI50 (ACHN): > 100 µM (inactive)
GI50 (SK-MEL-5): > 100 µM (inactive)
GI50 (M14): > 100 µM (inactive)
GI50 (NCI-H460): > 100 µM (inactive)
GI50 (U-251): > 100 µM (inactive)
GI50 (Malme-3M): > 100 µM (inactive)

— ChEMBL document CHEMBL1201862, “PubChem BioAssay data set” (2004)
